Reference: patent publication US8680120B2, “Indole derivative or pharmaceutically acceptable salt thereof” (Kissei Pharmaceutical Co., Ltd., priority 2009, dated 2014)

biological target: rat EP1 receptor (Rattus norvegicus (Rat), UniProt P70597); test: Test for confirmation of EP1 receptor antagonism: inhibition of the prostaglandin E2-induced increase in intracellular calcium concentration in rat EP1 receptor-expressing COS-1 cells; type: cell-based; details: Method A: Fluo-4 NW Calcium Assay Kit, FlexStation; prostaglandin E2 10 nM; rat EP1 receptor-expressing COS-1 cells
Procedure: (1) Preparation of Rat EP1 Expression Vector
Using Rat Kidney BD Marathon-Ready cDNA (Nippon Becton Dickinson Company, Ltd.) as a template, a forward primer shown in SEQ ID NO. 1, and a reverse primer shown in SEQ ID NO. 2, a first run of PCR was carried out using KOD-Plus-Ver 2.0 (Toyobo Co., Ltd.). Further, using this amplification product as a template, a forward primer shown in SEQ ID NO. 3, and a reverse primer shown in SEQ ID NO. 4, a second run of PCR was carried out in the same manner. The amplification product obtained by the second run of PCR was incorporated into a vector (pcDNA3.1 D/V5-His-TOPO (registered trademark), Invitrogen Japan K. K.). By a conventional method, the vector containing this amplification product was introduced to E. coli (One Shot TOP10 Competent Cells, Invitrogen Corporation) to transform. This transformed E. coli was cultured in an LB agar medium for one day. After the culture, colonies were selected and cultured in an LB liquid medium containing 50 μg/mL of ampicillin. After the culture, the vector was purified using a QIAprep Spin Miniprep Kit (Qiagen K. K.). The base sequence of the insertion site of this vector (SEQ ID NO. 5) was compared with the rat EP1 base sequence (Ptger1) registered as an accession number NM_013100 in well-known database (NCBI), and as a result, they all matched except for a single base. Further, the amino acid sequence translated by the base sequence completely matched the amino acid sequence of the rat EP1 receptor registered as an NCBI accession number NP_037232. Therefore, it was confirmed that the cloned gene sequence was a base sequence of the rat EP1 receptor and the obtained amino acid sequence was that of the rat EP1 receptor. The pcDNA3.1 D/V5-His-TOPO (registered trademark) to which the nucleic acid shown in SEQ ID NO. 5 had been inserted was taken as a rat EP1-expressing vector.
(2) Preparation of Rat EP1 Receptor-Expressing Cells
COS-1 cells (Dainippon Sumitomo Pharma Co., Ltd.) were cultured until it reached confluence in an incubator at 37° C. under a 5% CO2 gas condition, using a D-MEM liquid medium (high glucose and L-glutamine contained, Invitrogen Corporation) to which a penicillin-streptomycin solution (Invitrogen Corporation, final concentration: 100 U/mL as benzylpenicillin; 100 μg/mL as streptomycin) as an antibiotic, MEM nonessential amino acids (Invitrogen Corporation, final Concentration: 0.1 mM), and fetal calf serum (Sanko Junyaku Co., Ltd., final concentration: 10%) were added.
The cells that had reached confluence were stripped with 0.05% trypsin/0.53 mM EDTA 4Na (Invitrogen Japan K. K.) and resuspended in the liquid medium. The resuspended cells were diluted and cultured in the liquid medium at a spread ratio from 1:4 to 1:8.
The cells that had reached confluence were stripped with 0.05% trypsin/0.53 mM EDTA.4Na, and resuspended in a D-MEM liquid medium (high glucose and L-glutamine contained, Invitrogen Corporation) to which an MEM nonessential amino acid (final concentration: 0.1 mM) and fetal calf serum (final concentration: 10%) were added. In each well of a Poly D-lysine-coated 96-well microplate (BD BioCoat (registered trademark), Nippon Becton Dickinson Company, Ltd.), this resuspended cell suspension culture was prepared to be 5×10^4 cells/well in 100 μL of the liquid medium, and seeded thereon. After seeding, the cells were cultured in an incubator at 37° C. under a 5% CO2 gas condition. At a point when the cells for introduction of a rat EP1-expressing vector were adhered (about 2 hours after seeding), introduction of the rat EP1-expressing vector was carried out in the following order.
For introduction of the rat EP1-expressing vector, Lipofectamine 2000 (Invitrogen Japan K. K.) was used. […]

rat EP1 receptor, sequence (P70597 whole entry): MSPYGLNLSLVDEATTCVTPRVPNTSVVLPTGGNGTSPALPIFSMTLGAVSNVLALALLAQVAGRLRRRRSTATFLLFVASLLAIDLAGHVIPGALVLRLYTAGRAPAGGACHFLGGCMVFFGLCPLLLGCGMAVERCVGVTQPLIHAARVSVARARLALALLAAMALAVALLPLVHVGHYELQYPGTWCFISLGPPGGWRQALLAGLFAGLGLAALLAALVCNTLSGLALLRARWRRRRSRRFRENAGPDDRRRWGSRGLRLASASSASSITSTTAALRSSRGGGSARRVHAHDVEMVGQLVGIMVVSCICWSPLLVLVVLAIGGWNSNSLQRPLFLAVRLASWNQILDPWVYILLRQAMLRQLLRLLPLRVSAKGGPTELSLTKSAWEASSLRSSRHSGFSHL

| IC50 | Compound |
| --- | --- |
| 21 nM | COc1ccc2c(c1)cc(-c1ccccc1)n2Cc1cccc(C(=O)O)c1 [Example 9-1, 3-(5-methoxy-2-phenylindol-1-ylmethyl)benzoic acid] |
| 89 nM | Cc1ccc2c(c1)cc(-c1ccccc1)n2Cc1cccc(C(=O)O)c1 [Example 9-13, 3-(5-methyl-2-phenylindol-1-ylmethyl)benzoic acid] |
| > 10000 nM | 3-(5-methyl-2-phenylindol-1-yl)carboxylic acid [Comparative Example 1, reference compound] |
| 35 nM | COc1ccc2c(c1)cc(-c1ccsc1)n2Cc1cccc(C(=O)O)c1 [Example 9-25, 3-(5-methoxy-2-thiophen-3-ylindol-1-ylmethyl)benzoic acid] |
| 13 nM | COc1cc2cc(-c3ccccc3)n(Cc3cccc(C(=O)O)c3)c2cc1F [Example 9-43, 3-(6-fluoro-5-methoxy-2-phenylindol-1-ylmethyl)benzoic acid] |
| 23 nM | COc1ccc2c(c1)cc(-c1ccsc1)n2Cc1cccc(C(=O)O)n1 [Example 9-35, 6-(5-methoxy-2-thiophen-3-ylindol-1-ylmethyl)pyridine-2-carboxylic acid] |
| 19 nM | COc1ccc2c(c1)cc(-c1ccccc1)n2Cc1cccc(C(=O)O)c1F [Example 9-44, 2-fluoro-3-(5-methoxy-2-phenylindol-1-ylmethyl)benzoic acid] |
| 22 nM | COc1ccc2c(c1)cc(C(C)C)n2Cc1cccc(C(=O)O)c1 [Example 9-15, 3-(2-isopropyl-5-methoxyindol-1-ylmethyl)benzoic acid] |
| 11 nM | COc1ccc2c(c1)cc(-c1ccoc1)n2Cc1cccc(C(=O)O)c1 [Example 9-32, 3-(2-furan-3-yl-5-methoxyindol-1-ylmethyl)benzoic acid] |

same assay, conditions: Method B: Calcium kit II Fluo 4, FDSS 7000; prostaglandin E2 10 nM; rat EP1 receptor-expressing COS-1 cells

| IC50 | Compound |
| --- | --- |
| 32 nM | COc1cc2cc(-c3cccc(F)c3)n(Cc3cccc(C(=O)O)n3)c2cc1Cl [Example 25-23, 6-[6-chloro-2-(3-fluorophenyl)-5-methoxyindol-1-ylmethyl]pyridine-2-carboxylic acid] |
| 35 nM | COc1cc2cc(-c3ccccc3)n(Cc3ccc(C(=O)O)o3)c2cc1C [Example 25-36, 5-[5-methoxy-6-methyl-2-phenylindol-1-ylmethyl]furan-2-carboxylic acid] |
| 58 nM | COc1cc2cc(-c3cccnc3)n(Cc3cccc(C(=O)O)n3)c2cc1F [Example 25-33, 6-(6-fluoro-5-methoxy-2-pyridin-3-ylindol-1-ylmethyl)pyridine-2-carboxylic acid] |
| 28 nM | COc1cc2cc(-c3cccnc3)n(Cc3cccc(C(=O)O)n3)c2cc1Cl [Example 25-42, 6-(6-chloro-5-methoxy-2-pyridin-3-ylindol-1-ylmethyl)pyridine-2-carboxylic acid] |
| 25 nM | COc1ccc2c(c1)cc(-c1cc(F)ccc1F)n2Cc1cccc(C(=O)O)n1 [Example 25-41, 6-[2-(2,5-difluorophenyl)-5-methoxyindol-1-ylmethyl)pyridine-2-carboxylic acid] |
| 28 nM | COc1cc2cc(-c3ccccc3F)n(Cc3cccc(C(=O)O)n3)c2cc1F [Example 25-28, 6-[6-fluoro-2-(2-fluorophenyl)-5-methoxyindol-1-ylmethyl]pyridine-2-carboxylic acid] |
| 51 nM | CCC(C)c1cc2cc(OC)c(Cl)cc2n1Cc1cccc(C(=O)O)n1 (centres unmarked) [Example 25-44, 6-[6-chloro-5-methoxy-2-(1-methylpropyl)indol-1-ylmethyl]pyridine-2-carboxylic acid] |
| 55 nM | COc1ccc2c(c1)cc(-c1ccccc1)n2Cc1csc(C(=O)O)n1 [Example 25-12] |
| 32 nM | COc1ccc2c(c1)cc(-c1ccccc1F)n2Cc1cccc(C(=O)O)c1 [Example 25-17, 3-[2-(2-fluorophenyl)-5-methoxyindol-1-ylmethyl]benzoic acid] |
| 34 nM | COc1ccc2c(c1)cc(-c1cccc(F)c1)n2Cc1ccc(C(=O)O)o1 [Example 25-11, 5-[2-(3-fluorophenyl)-5-methoxyindol-1-ylmethyl]furan-2-carboxylic acid] |
| 33 nM | COc1cc2cc(-c3ccc(F)cc3)n(Cc3cccc(C(=O)O)n3)c2cc1F [Example 25-31, 6-[6-fluoro-2-(4-fluorophenyl)-5-methoxyindol-1-ylmethyl]pyridine-2-carboxylic acid] |
| 27 nM | COc1cc2cc(-c3ccoc3)n(Cc3cccc(C(=O)O)n3)c2cc1Cl [Example 25-37, 6-(6-chloro-2-furan-3-yl-5-methoxyindol-1-ylmethyl)pyridine-2-carboxylic acid] |
| 67 nM | COc1cc2cc(-c3ccccc3)n(Cc3cccc(C(=O)O)n3)c2cc1Cl [Example 25-9, 6-(6-chloro-5-methoxy-2-phenylindol-1-ylmethyl)pyridine-2-carboxylic acid] |
| 26 nM | COc1cc2cc(-c3cccc(F)c3)n(Cc3cccc(C(=O)O)n3)c2cc1F [Example 25-29, 6-[6-fluoro-2-(3-fluorophenyl)-5-methoxyindol-1-ylmethyl]pyridine-2-carboxylic acid] |
| 36 nM | COc1ccc2c(c1)cc(-c1ccc(F)cc1)n2Cc1cccc(C(=O)O)c1 [Example 25-19, 3-[2-(4-fluorophenyl)-5-methoxyindol-1-ylmethyl]benzoic acid] |
| 38 nM | COc1ccc2c(c1)cc(-c1cccnc1)n2Cc1cccc(C(=O)O)c1 [Example 25-13, 3-(5-methoxy-2-pyridin-3-ylindol-1-ylmethyl)benzoic acid] |
| 39 nM | COc1cc2cc(-c3ccccc3)n(Cc3cccc(C(=O)O)n3)c2cc1C [Example 25-16, 6-(5-methoxy-6-methyl-2-phenylindol-1-ylmethyl)pyridine-2-carboxylic acid] |
| 17 nM | COc1ccc2c(c1)cc(-c1cccc(F)c1)n2Cc1cccc(C(=O)O)c1 [Example 25-18, 3-[2-(3-fluorophenyl)-5-methoxyindol-1-ylmethyl]benzoic acid] |
| 22 nM | COc1cc2cc(-c3ccoc3)n(Cc3ccc(C(=O)O)o3)c2cc1Cl [Example 25-38, 5-(6-chloro-2-furan-3-yl-5-methoxyindol-1-ylmethyl)furan-2-carboxylic acid] |
| 17 nM | COc1cc2cc(-c3ccccc3)n(Cc3ccc(C(=O)O)o3)c2cc1Cl [Example 25-26, 5-[6 chloro-5-methoxy-2-phenylindol-1-ylmethyl]furan-2-carboxylic acid] |
| 37 nM | COc1cc2cc(-c3ccsc3)n(Cc3cccc(C(=O)O)n3)c2cc1C [Example 25-39, 6-(5-methoxy-6-methyl-2-thiophen-3-ylindol-1-ylmethyl)pyridine-2-carboxylic acid] |
| 54 nM | COc1cc2cc(-c3ccsc3)n(Cc3cccc(C(=O)O)n3)c2cc1Cl [Example 25-34, 6-(6-chloro-5-methoxy-2-thiophen-3-ylindol-1-ylmethyl)pyridine-2-carboxylic acid] |

same assay, conditions: as shown in Table 49

| EP1 receptor antagonism (in words) | Compound |
| --- | --- |
| do not exhibit EP1 receptor antagonism | 3-(5-methyl-2-phenylindol-1-yl)carboxylic acid [Comparative Example 1, reference compound] |
